Experimental data taken from ChEMBL document CHEMBL1201862, “PubChem BioAssay data set” (2004).
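96-well plates; 48 h exposure; 5 concentrations. Endpoints by linear interpolation between flanking doses. Not reached: highest tested concentration assigned. Here, GI50 denotes the concentration required for 50% inhibition of growth.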 Active and inactive are the calls of the source. Cut-off read from the data, not from the text of the source: active = GI50 up to about 1.1 µM and inactive = higher.

Experiments:
Assay in all cases: NCI tumour cell line growth inhibition, 48 h
[1] = tested on: HOP-92
[2] = tested on: HOP-62
[3] = tested on: MDA-MB-435
[4] = tested on: NCI-H23
[5] = tested on: TK-10
[6] = tested on: SK-OV-3
[7] = tested on: 786-0
[8] = tested on: MOLT-4
[9] = tested on: NCI/ADR-RES
[10] = tested on: SF-268
[11] = tested on: OVCAR-5
[12] = tested on: UO-31
[13] = tested on: RXF 393
[14] = tested on: LOX IMVI
[15] = tested on: OVCAR-4
[16] = tested on: CCRF-CEM
[17] = tested on: SK-MEL-2
[18] = tested on: HL-60
[19] = tested on: CAKI-1

Measured: GI50

O=c1[nH]nc(-c2ccccc2)n1/N=C/c1c(O)ccc2ccccc12
inactive: [1] 34.2 µM | [2] 34.8 µM | [3] 56.5 µM | [4] 26.8 µM | [5] 38.4 µM | [6] 28.2 µM | [7] 31.3 µM | [8] > 100 µM | [9] 30.3 µM | [10] 32.7 µM | [11] > 100 µM | [12] 36 µM | [13] 23.8 µM | [14] 46.9 µM | [15] 15.4 µM | [16] > 100 µM | [17] 62.7 µM

[N-]=[N+]=C(C(=O)N1CCCC1=O)S(=O)(=O)c1ccccc1
inactive: [2] 58.6 µM | [3] 77.8 µM | [4] 72.9 µM | [5] > 100 µM | [7] 97.9 µM | [8] 50.2 µM | [9] > 100 µM | [10] > 100 µM | [18] 55.1 µM | [12] > 100 µM | [13] 70.6 µM | [14] 42.9 µM | [16] 80.7 µM | [17] 62.5 µM

Clc1cc(Br)c2c3c(c(Br)cc(Cl)c13)C(Br)=C2Br
inactive: [2] 64.3 µM | [3] 39.4 µM | [5] 21.8 µM | [6] > 100 µM | [7] 22.1 µM | [8] 19.8 µM | [9] 22.8 µM | [10] 22.5 µM | [18] 19.1 µM | [11] 44.2 µM | [12] 44.6 µM | [14] 16.9 µM | [15] 44.9 µM | [17] 29.9 µM

CCNc1nc2ccccc2nc1NCC
inactive: [3] > 100 µM | [4] > 100 µM | [5] > 100 µM | [6] > 100 µM | [7] > 100 µM | [8] > 100 µM | [9] > 100 µM | [10] > 100 µM | [19] > 100 µM | [18] > 100 µM | [11] > 100 µM | [12] > 100 µM | [13] > 100 µM | [14] > 100 µM | [16] > 100 µM | [17] > 100 µM

O=c1[nH]n(Cc2ccccn2)c2ccc([N+](=O)[O-])cc12
inactive: [1] > 100 µM | [2] > 100 µM | [4] > 100 µM | [5] > 100 µM | [7] > 100 µM | [8] > 100 µM | [9] > 100 µM | [10] > 100 µM | [19] > 100 µM | [18] > 100 µM | [11] > 100 µM | [12] > 100 µM | [13] > 100 µM | [14] > 100 µM | [15] > 100 µM | [16] > 100 µM | [17] > 100 µM
